Data set [1] deals with HER2+ SK-BR-3 breast cancer cells. The data set can be described thus: In vitro cytotoxicity assay (PrestoBlue), Example 9 (FIG. 5). The format is cell-based. As to conditions: Homo sapiens. How it is done: (§1) HER2+ SK-BR-3 breast cancer cells (ATCC), HCC1954 breast cancer cells (CRL-2338, ATCC), JIMT-1 breast cancer cells (DSMZ) and SKOV-3 ovarian cancer cells (ATCC) were cultured essentially according to the providers' instructions. After incubation with ADCs, cell viability was determined using PrestoBlue reaction using manufacturer's instructions. Cell viability data data was transferred to GraphPad Prism to determine IC50 values. Exatecan (mesylate salt) and DXd (free deruxtecan payload) were purchased from MedChemExpress.

The subject of data set [2] is HER2+ HCC1954 breast cancer cells. The data set can be described thus: In vitro cytotoxicity assay (PrestoBlue), Example 9 (FIG. 6). The format is cell-based. The conditions noted are these: Homo sapiens. How it is done: as §1
Data set [3] deals with HER2+ JIMT-1 breast cancer cells. In words: In vitro cytotoxicity assay (PrestoBlue), Example 9 (FIG. 7). Format: cell-based. The conditions noted are these: Homo sapiens. How it is done:
as §1

Data set [4] concerns HER2+ SKOV-3 ovarian cancer cells. The data set can be described thus: In vitro cytotoxicity assay (PrestoBlue), Example 9 (FIG. 8). The format is cell-based. The conditions noted are these: Homo sapiens, SK-OV-3. How it is done:
as §1

Data set [5] relates to MOLM-13 cells. In words: MOLM-13 xenograft model. As to conditions: for signs of toxicity: single i.v. dose, clinical signs and general behavior. How it is done: The study was performed at the TCDM, University of Turku, Finland, according to the appropriate ethical committee approval. Cells for inoculation to mice were prepared in vigorous exponential growth phase. 2 million MOLM-13 cells in 50% Matrigel were inoculated s.c. to the flank of each mouse (female athymic nude mice between 8-10 weeks of age). Clinical signs and general behavior of the animals were observed regularly. […] Tumor growth was followed by palpation. After caliper measurement, tumor volume was calculated according to 0.5×length×width^2. […] Mice were evenly divided into study groups, 6 mice in each group, so that each group received similar distribution of different-sized tumors and the average tumor volumes were similar in each group. Intravenous (i.v.) treatment in PBS was given once on day 1 of treatment as a single dose regimen (on day 8 after tumor inoculation). The experiment lasted to day 46 after treatment (day 54 after tumor inoculation).

Data set [6] can be described thus: Aggregation status by size-exclusion chromatography (SEC-HPLC). Format: physicochemical. How it is done: Aggregation status of FLExM01 was evaluated by size-exclusion chromatography (SEC-HPLC; FIG. 2A), showing very low aggregation with high-molecular weight aggregate level of 1.6%. Drug-to-Antibody Ratio (DAR) was determined by reversed-phase chromatography (RP-HPLC; FIG. 2B), showing homogeneous conjugation to DAR=8.
Background: SEC sorts molecules by how far they enter the pores of the column.

Data set [7] is described as follows: Hydrophobic interaction chromatography (HIC-HPLC) of flanvotumab ADCs. The format is physicochemical. As to conditions: closer to naked antibody = more hydrophilic. The source says: Flanvotumab-deruxtecan ADC was generated essentially similarly as FLExM above using deruxtecan linker-payload (DxM, MedChemExpress, Sweden; Scheme 1.4).
HIC-HPLC analysis using TSKgel ButylNPR column was done with Äkta HPLC purifier system.

The test system of data set [8] is SK-MEL-30 melanoma cells. The data set can be described thus: SK-MEL-30 human melanoma xenograft model. Format: in vivo, athymic mice. As to conditions: single i.v. 10 mg/kg dose. How it is done:
SK-MEL-30 human melanoma xenograft model (FIG. 4A): The animal model were performed at the University of Helsinki, Finland, according to the appropriate ethical committee approval. SK-MEL-30 melanoma cells, 2 million cells/mouse, were inoculated subcutaneously (s.c.) to athymic mice.

Data set [9] is described as follows: Maleimide self-stabilization in storage formulation. The format is physicochemical. The conditions noted are these: storage formulation of PBS pH 7.4.
[10] abbreviates: single i.v. 10 mg/kg dose, day 54 after inoculation.

Data on seven molecules can be found in patent US20240374749A1, “ANTIBODY-EXATECAN CONJUGATES” (Glykos Finland Oy, priority 2023, published 2024).

Where two headings read alike, the source gives them in different places.

On to `CC[C@@]1(O)C(=O)OCc2c1cc1n(c2=O)Cc2c-1nc1cc(F)c(C)c3c1c2[C@@H](NC(=O)CO)CC3` [DXd, 2-hydroxyacetoyl exatecan], for which the IC50 in data set [1] was 4.3 nM; in [2] (HCC1954), 5 to 8 nM; in [3], 18 nM; in data set [4], 9.5 nM.
For `CC[C@@]1(O)C(=O)OCc2c1cc1n(c2=O)Cc2c-1nc1cc(F)c(C)c3c1c2[C@@H](N)CC3` [exatecan, Exatecan], the IC50 was 0.87 nM in data set [1]; 5 to 8 nM in data set [2] (HCC1954 cells, FIG. 6, read-out: IC50); 3.1 nM in data set [3]; 4.7 nM in [4].
“LNDxM: lintuzumab-deruxtecan ADC DAR=8, maleimides not stabilized; 01-03 are batches [reference compound]”: the “deaths due to tumor growth, %” value in data set [5] (single i.v. 10 mg/kg dose) amounted to 17%. In addition, in data set [5] (setting [10]), the “tumor-free mice at the end of the study (mice out of 6)” value is reported as 2/6 and the “tumor-free mice at the end of the study, %” value came out at 33%. In addition, the “deaths due to tumor growth (mice out of 6)” value in data set [5] (single i.v. 10 mg/kg dose, death on day 47 after tumor inoculation) is listed as “⅙”. Moreover, the signs of toxicity entry in data set [5] is “No signs of toxicity were recorded”.
With “Lintuzumab: humanized recombinant antibody produced in CHO cells; anti-CD33”, the “tumor growth inhibition (in words)” value in data set [5] (single i.v. 10 mg/kg dose, s.c. tumors about 120 mm^3) is reported as “only slight inhibitory activity to tumor growth”. In addition, the signs of toxicity entry in data set [5] is listed as “No signs of toxicity were recorded”.

B1: FLExM01: flanvotumab-exatecan ADC with ExM linker-payload, DAR≈8 (conjugate, chains of the INN, looked up)
VH: QVQLVQSGSELKKPGASVKISCKASGYTFTSYAMNWVRQAPGQGLESMGWINTNTGNPTYAQGFTGRFVFSMDTSVSTAYLQISSLKAEDTAIYYCAPRYSSSWYLDYWGQGTLVTVSS
VL: EIVLTQSPATLSLSPGERATLSCRASQSVSSYLAWYQQKPGQAPRLLIYDASNRATGIPARFSGSGSGTDFTLTISSLEPEDFAVYYCQQRSNWLMYTFGQGTKLEIK
modifications: exatecan ExM linker-payload, DAR 8
For the molecule B1, the “high-molecular weight aggregate level” value in data set [6] (SEC-HPLC) is 1.6%. The HIC-HPLC elution volume in [7] amounted to 6.5 mL. Besides, the toxicities observed entry in data set [8] was “No toxicities were observed”. Further, in data set [8] (s.c. tumors about 200 mm^3), the “tumor growth inhibition (in words)” value is recorded as “inhibited markedly more in the ADC-treated mice than either the antibody-treated or non-treated mice”. For the same molecule, the “maleimide self-stabilization (in words)” value in data set [9] is recorded as “self-stabilized by maleimide hydrolysis”.

B2: FLDxM01: Flanvotumab-deruxtecan ADC, DAR≈8 (conjugate, chains of the INN, looked up)
VH: B1 VH
VL: B1 VL
modifications: deruxtecan, DAR 8
B2: the “aggregates (in words)” value in data set [6] (MALDI-TOF MS, SEC-HPLC and RP-HPLC) is recorded as “low aggregates”. In [7], this molecule yielded an HIC-HPLC elution volume of 7.8 mL.

B3: Flanvotumab: naked antibody, parent of the anti-TYRP-1 ADC (antibody, chains of the INN, looked up, V domains shown)
VH: B1 VH
VL: B1 VL
On to B3, for which, in data set [8], the toxicities observed result was “No toxicities were observed”.

One may read the IC50 as the concentration that gives 50% inhibition.
